≈ marks a conversion by molar mass, not a printed value.

Consider 6 compounds from DBAASP.

What all share (assay): ≥ marks a high value that may be exact or a test limit, other limits are often not marked, values filed in µg/mL are converted to µM
In assay [1] the test system is Cronobacter sakazakii ATCC 29544.
Assay [2] deals with Staphylococcus aureus ATCC 25923.
Assay [3] relates to Bacillus subtilis ATCC 23857.
Assay [4] concerns Staphylococcus epidermidis ATCC 12228.
Assay [5] relates to Staphylococcus aureus ATCC 29213.
The test system of assay [6] is Escherichia coli ATCC 25922.
Assay [7] has as its system Pseudomonas aeruginosa ATCC 27853.
Assay [8] has as its system Lacticaseibacillus rhamnosus 1.0385.
Assay [9] concerns Lacticaseibacillus rhamnosus 1.0936.
Assay [10] has as its system Lacticaseibacillus rhamnosus 1.0911.
Assay [11] concerns Salmonella enterica subsp. enterica serovar Pullorum C79-13.
The subject of assay [12] is Salmonella enterica subsp. enterica serovar Typhimurium C77-31.
Assay [13] concerns Staphylococcus aureus ATCC 43300.
The subject of assay [14] is Escherichia coli K88.
Assay [15] relates to Lactiplantibacillus plantarum 8014.
Assay [16] relates to Salmonella enterica subsp. enterica serovar Typhimurium ATCC 14028.
Assay [17] concerns Escherichia coli K99.
For assay [18], the system named is Escherichia coli UB1005.
Assay [19] has as its system Lacticaseibacillus rhamnosus 7469.
For assay [20], the system named is Micrococcus luteus.
Assay [21] concerns Staphylococcus epidermidis.
The subject of assay [22] is Leuconostoc lactis.
The test system of assay [23] is Staphylococcus aureus.
In assay [24] the test system is Bacillus cereus.
In assay [25] the test system is Streptococcus uberis.
Assay [26] concerns Pasteurella multocida.
Assay [27] concerns Listeria innocua.
In assay [28] the test system is Escherichia coli.
For assay [29], the system named is Batrachochytrium dendrobatidis.
The subject of assay [30] is Candida krusei ATCC 20029.
The test system of assay [31] is Acinetobacter baumannii ATCC 19606.
Assay [32] concerns Cryptococcus neoformans ATCC 24067.
Assay [33] concerns Staphylococcus aureus ATCC 33591.
In assay [34] the test system is Cryptococcus gattii ATCC 32608.
Assay [35] deals with Escherichia coli NCTC 10418.
Assay [36] relates to Staphylococcus aureus NCTC 12981.
Assay [37] concerns Staphylococcus aureus FDA 486.
The subject of assay [38] is Staphylococcus aureus 2844.
The test system of assay [39] is Pseudomonas aeruginosa 15159.

One may read the MIC as the least concentration at which growth counts as inhibited. Low readings indicate inhibition by little substance, high ones a need for much substance. Consider `CC[C@H](C)[C@H](N)C(=O)N[C@@H](CC(C)C)C(=O)NCC(=O)N[C@H](C(=O)N[C@H](C(=O)N[C@@H](CC(C)C)C(=O)NCC(=O)N[C@@H](CC(C)C)C(=O)N[C@@H](CC(C)C)C(=O)N[C@@H](CCCCN)C(=O)N[C@@H](Cc1ccccc1)C(=O)N[C@@H](CC(C)C)C(N)=O)[C@@H](C)CC)[C@@H](C)O` [ILGTILGLLKFL], for which the MIC was ≥ 256 µM in [1]; 4 µM (≈ 5.2 µg/mL) in assay [2]; 4 µM (≈ 5.2 µg/mL) in assay [3]; 2 µM (≈ 2.6 µg/mL) in [4]; 4 µM (≈ 5.2 µg/mL) in assay [5].

For `CC(C)C[C@H](NC(=O)[C@H](CC(C)C)NC(=O)[C@H](Cc1c[nH]c2ccccc12)NC(=O)[C@H](Cc1c[nH]c2ccccc12)NC(=O)[C@H](Cc1c[nH]c2ccccc12)NC(=O)[C@H](CCCN=C(N)N)NC(=O)[C@H](CS)NC(=O)[C@H](Cc1ccccc1)NC(=O)[C@H](Cc1ccc(O)cc1)NC(=O)[C@H](CO)NC(=O)[C@H](C)NC(=O)[C@@H](N)CS)C(N)=O` [CASYFCRWWWLL], the MIC in [6] was > 64 µM; in [7], > 64 µM; in assay [2] it was > 64 µM; in [8], ≥ 64 µM; in [9] it was ≥ 64 µM; in assay [10], ≥ 64 µM. Besides, the MIC was ≥ 64 µM in [11]; ≥ 64 µM in assay [12]; > 64 µM in assay [13]; > 64 µM in assay [5]; ≥ 64 µM in assay [14]; ≥ 64 µM in [15]. The minimal inhibitory concentration (MIC) in assay [16] was > 64 µM; in assay [17], ≥ 64 µM; in [18], ≥ 64 µM; in assay [19], ≥ 64 µM.

As for `CC[C@H](C)[C@H](NC(=O)[C@H](CC(=O)O)NC(=O)[C@H](CC(C)C)NC(=O)[C@H](CC(C)C)NC(=O)CN)C(=O)N[C@H](C(=O)N[C@@H](CCCCN)C(=O)N[C@@H](CCCCN)C(=O)N[C@H](C(=O)N[C@H](C(=O)NCC(=O)N[C@@H](C)C(=O)N[C@@H](Cc1ccccc1)C(=O)NCC(=O)N[C@@H](CO)C(=O)N[C@@H](CC(C)C)C(N)=O)C(C)C)C(C)C)C(C)C` [GLLDIVKKVVGAFGSL], the MIC in [20] is ≥ 61.9 µM; in assay [21] it was 30.9 µM (≈ 50 µg/mL); in [22], 3.71 µM (≈ 6 µg/mL); in assay [23], > 61.9 µM; in [24], 30.9 µM (≈ 50 µg/mL); in assay [25], ≥ 61.9 µM. Moreover, the MIC in assay [26] was ≥ 61.9 µM; in assay [27] it was 3.71 µM (≈ 6 µg/mL); in assay [28] it was > 61.9 µM; in assay [29] it was ≥ 200 µM.

Consider `CC[C@H](C)[C@H](NC(C)=O)C(=O)N[C@@H](Cc1c[nH]c2ccccc12)C(=O)N[C@@H](CC(C)C)C(=O)N[C@H](C(=O)N[C@@H](CCCCN)C(=O)N[C@@H](C)C(=O)N[C@@H](CC(C)C)C(=O)N[C@@H](CCCCN)C(=O)N[C@@H](Cc1ccccc1)C(=O)N[C@@H](CC(C)C)C(=O)NCC(=O)N[C@@H](CCCCN)C(=O)N[C@@H](CC(N)=O)C(=O)N[C@@H](CC(C)C)C(=O)NCC(=O)N[C@@H](CCCCN)C(N)=O)[C@@H](C)O` [IWLTKALKFLGKNLGK], for which the MIC turned out to be 3.01 µM (≈ 5.63 µg/mL) in [6]; 24.2 µM (≈ 45.2 µg/mL) in assay [7]; 30.5 µM (≈ 57 µg/mL) in assay [30]; 2.68 µM (≈ 5.02 µg/mL) in assay [31]; 8.55 µM (≈ 16 µg/mL) in assay [32]; 4.27 µM (≈ 7.99 µg/mL) in [33]. Moreover, the MIC in assay [4] turned out to be 2.13 µM (≈ 3.99 µg/mL); in assay [34], 3.38 µM (≈ 6.33 µg/mL).

Turning to `NCCCC[C@H](NC(=O)[C@H](Cc1ccccc1)NC(=O)[C@H](CCCCN)NC(=O)[C@@H](N)Cc1ccccc1)C(=O)N[C@@H](Cc1ccccc1)C(N)=O` [FKFKF], the MIC in [35] and in [36] was ≥ 179 µM each time.

For the compound `CC(=O)N[C@@H](CCC(=O)O)C(=O)N[C@@H](Cc1c[nH]c2ccccc12)C(=O)N[C@@H](CCCCN)C(=O)N[C@@H](CCCN=C(N)N)C(=O)N[C@@H](Cc1c[nH]c2ccccc12)C(=O)N[C@H](C(=O)N[C@@H](CCC(N)=O)C(=O)N[C@@H](CCCN=C(N)N)C(=O)N[C@@H](Cc1c[nH]c2ccccc12)C(=O)N[C@@H](CCCCN)C(=O)N[C@@H](CC(=O)O)C(=O)N[C@@H](Cc1c[nH]c2ccccc12)C(=O)N[C@@H](CC(C)C)C(=O)N[C@@H](CCCN=C(N)N)C(=O)N[C@@H](CC(N)=O)C(=O)N[C@@H](CC(C)C)C(=O)N[C@H](C(N)=O)C(C)C)C(C)C` [EWKRWVQRWKDWLRNLV], the MIC in [7] was 10 µM (≈ 24.4 µg/mL); in assay [37] it was 5 µM (≈ 12.2 µg/mL); in assay [38] it was 5 µM (≈ 12.2 µg/mL); in [5], 10 µM (≈ 24.4 µg/mL); in assay [39] it was 10 µM (≈ 24.4 µg/mL).
